This note sets out measurements from patent US5750754A, “Heterocyclic compounds” (Zeneca Limited, priority 1993, dated 1998).

The structures appear in SMILES notation. Where a name gives a salt, the structure may show the parent alone. Read-outs that look alike come from different tables or passages of the source.

The target of assay [1] is T1, human, citrated, platelet-rich plasma (Homo sapiens, UniProt P05106+P08514).
T1 construct: aggregating human, citrated, platelet-rich plasma; endogenous in cells; host or cells: human platelets in citrated platelet-rich plasma
In words: Test (a): inhibition of ADP stimulated platelet aggregation (Born). The format is cell-based. The conditions noted are these: ADP induced aggregation of human platelet-rich plasma. From the text:
(i) aggregating human, citrated, platelet-rich plasma by addition of adenosine diphosphate so as to generate a dose-response curve;
(ii) generating a dose-response curve for ADP stimulated platelet aggregation in the presence of increasing amounts of a test compound (generally in the range 10-^5 M to 10-^10 M); and
(iii) calculating a pA2 value indicating potency of platelet aggregation inhibition for the test compound, averaged over several concentrations, from the calculated 50% response value for ADP aggregation in the presence and absence of the test compound.

Assay [2] addresses T2, purified human platelet fibrinogen receptor (GPIIb/IIIa) (Homo sapiens, UniProt P05106+P08514).
T2 construct: is isolated from human platelet lysates; from tissue
Nature of the assay: Test (b): GPIIb/IIIa ELISA, inhibition of biotinylated fibrinogen binding. As to conditions: purified human platelet GPIIb/IIIa, ELISA. As for the experimental part:
(i) Preparation of human platelet lysates.
Platelet rich plasma (PRP) is harvested by centrifugation (1000 rpm, 15 mins) of whole blood anticoaoulated with acid citrate dextrose (trisodium citrate 85 mM, citric acid 70 mM, d-glucose 110 mM) 1 part to 6 parts blood. Prostacyclin (PGI2, 1 μM) is added to the PRP before centrifugation (2400 pm, 15 mins) and the resulting pellet is resuspended in modified Tyrodes' solution (NaCl 130 mM, KCl 26 mM, NaHCO3 12 mM, NaH2 PO4 0.5 mM, MgCl2 1 mM, CaCl2 20 mM, Glucose 12 mM, HEPES 5 mM) containing bovine serum albumin 3.5 g/L, PGI2 1 μM and hirudin 0.5 U/ml. The platelet suspension is centrifuged (2400 rpm, 15 mins) and the resultant pellet resuspended in 500 μl of lysis buffer (octyl glucoside 50 mM, HEPES 10 mM, NaCl 150 mM, CaCl2 1 mM, MgCl2 1 mM, PMSF 1 mM, NEM 10 mM, leupeptin 0.1 mM), agitated at 4° C. for 15 minutes then centrifuged at 24000 rpm, 15 mins. The supernatant is stored at 4° C. and the pellet re-suspended in 500 μl of lysis buffer. The centrifugation process is repeated a further 3 tlimes, the pooled supernatants being stored at -70° C.
(ii) Receptor purification.
GP Ilb/Ila is isolated from human platelet lysates using a 2 ml peptide (KYGRGDS) coupled CNBr activated Sepharose affinity column. A 1.5 ml volume of platelet lysate is placed on the column and allowed to stand overnight at 4° C. Buffer (30 mls, octyl gluicoside 25 mM, HEPES 10 mM, NaCl 150 mM, CaCl2 1 mM, MgCl2 1 mM, PMSF 1 mM, NEM 10 mM, leupeptin 0.1 mM) is passed through the column and 2 ml fractions are collected throughout. GPIIb/IIIa is eluted with 12 mls of buffer containing HHLGGAKQAGDV (2 mg/ml, pH 7.5), the column is washed using 4 mls buffer and the remaining GPIIb/IIIa eluted using 12 mls buffer containing GRGDSPG (1 mg/ml pH 7.5). The column is finally washed using 20 mls of buffer and can be used for up to three such preparations. Fractions containing FGPIIb/IIIa are identified using gel electrophoresis and immunoblotting, pooled and stored at -70° C.
96 well microtitre plates are coated with 100 μl purified human platelet fibrinogen receptor (GPIIb/IIIa) diluted in coating buffer (Tris-HCl 20 mM, NaCl 150 mM, CaCl2 1 mM, pH 7.4) and left overnight at 4° C. The plates are washed using washing buffer (Tris-HCl 50 mM, NaCl 100 mM, CaCl2 2 mM, pH 7.4) and non-specific binding, blocked by the addition of 200 μl 2% BSA (2 hours, 30° C.). The plates are washed prior to incubation (2 hours, 30° C.) with 100 μl biotinylated fibrinogen ([…]) containing either vehicle or test compound. The plates are washed, incubated with streptavidin (5 μg/ml, 1 hour, ambient temperature), then washed again before the addition of 100 μl biotinylated horse radish peroxidase (0.1 μg/ml, 1 hour, ambient temperature). The plates are then washed and equal volumes of peroxidase substrate (3, 5, tetramethyl benzidine 0.4 g/l) and H2 O2 (0.02%) are mixed together immediately before addition of 150 μl to each well. Colour is allowed to develop for 10-15 mins before optical densities are read at 650 nm.
The concentration of compound required to cause 50% inhibition of biotinylated fibrinogen binding, is calculated and expressed as a pIC50 (-log(IC50)).
(An ELISA detects its analyte on a solid surface through an enzyme-linked reagent.)

The mark [3] stands for this setting: read-out: Test (a): pA2 value indicating potency of platelet aggregation inhibition (converted).
Where [4] appears, read: read-out: Test (b): pIC50 (-log(IC50)), 50% inhibition of biotinylated fibrinogen binding to GPIIb/IIIa (converted).

T1 sequence (P08514 32-887 limits assumed): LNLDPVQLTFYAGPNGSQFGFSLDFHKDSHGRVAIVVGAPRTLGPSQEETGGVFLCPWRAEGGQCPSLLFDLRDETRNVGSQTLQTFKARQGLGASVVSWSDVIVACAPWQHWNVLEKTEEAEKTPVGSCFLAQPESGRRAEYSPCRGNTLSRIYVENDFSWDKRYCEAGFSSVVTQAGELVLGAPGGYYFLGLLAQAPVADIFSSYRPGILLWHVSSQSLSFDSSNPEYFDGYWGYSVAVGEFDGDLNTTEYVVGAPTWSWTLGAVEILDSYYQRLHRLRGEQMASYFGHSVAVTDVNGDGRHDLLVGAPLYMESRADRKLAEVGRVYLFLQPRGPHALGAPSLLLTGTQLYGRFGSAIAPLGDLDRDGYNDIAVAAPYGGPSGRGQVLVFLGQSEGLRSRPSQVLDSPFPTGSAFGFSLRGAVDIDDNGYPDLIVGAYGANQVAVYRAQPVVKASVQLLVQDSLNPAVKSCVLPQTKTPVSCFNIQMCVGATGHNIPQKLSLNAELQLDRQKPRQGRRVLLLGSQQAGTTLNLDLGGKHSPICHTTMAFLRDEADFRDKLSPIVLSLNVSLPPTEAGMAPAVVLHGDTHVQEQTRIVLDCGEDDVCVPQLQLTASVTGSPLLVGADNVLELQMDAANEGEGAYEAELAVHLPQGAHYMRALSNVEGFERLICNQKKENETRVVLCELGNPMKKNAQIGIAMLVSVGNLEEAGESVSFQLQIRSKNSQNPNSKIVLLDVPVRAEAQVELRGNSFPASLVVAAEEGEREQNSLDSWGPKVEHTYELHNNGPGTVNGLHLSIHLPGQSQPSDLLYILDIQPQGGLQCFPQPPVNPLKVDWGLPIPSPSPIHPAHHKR
T1 sequence (P08514 891-1039 limits assumed): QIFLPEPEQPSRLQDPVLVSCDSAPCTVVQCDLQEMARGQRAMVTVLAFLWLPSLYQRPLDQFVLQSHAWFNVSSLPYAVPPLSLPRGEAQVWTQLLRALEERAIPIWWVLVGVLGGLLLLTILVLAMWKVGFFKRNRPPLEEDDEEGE
T1 sequence (P05106 27-788): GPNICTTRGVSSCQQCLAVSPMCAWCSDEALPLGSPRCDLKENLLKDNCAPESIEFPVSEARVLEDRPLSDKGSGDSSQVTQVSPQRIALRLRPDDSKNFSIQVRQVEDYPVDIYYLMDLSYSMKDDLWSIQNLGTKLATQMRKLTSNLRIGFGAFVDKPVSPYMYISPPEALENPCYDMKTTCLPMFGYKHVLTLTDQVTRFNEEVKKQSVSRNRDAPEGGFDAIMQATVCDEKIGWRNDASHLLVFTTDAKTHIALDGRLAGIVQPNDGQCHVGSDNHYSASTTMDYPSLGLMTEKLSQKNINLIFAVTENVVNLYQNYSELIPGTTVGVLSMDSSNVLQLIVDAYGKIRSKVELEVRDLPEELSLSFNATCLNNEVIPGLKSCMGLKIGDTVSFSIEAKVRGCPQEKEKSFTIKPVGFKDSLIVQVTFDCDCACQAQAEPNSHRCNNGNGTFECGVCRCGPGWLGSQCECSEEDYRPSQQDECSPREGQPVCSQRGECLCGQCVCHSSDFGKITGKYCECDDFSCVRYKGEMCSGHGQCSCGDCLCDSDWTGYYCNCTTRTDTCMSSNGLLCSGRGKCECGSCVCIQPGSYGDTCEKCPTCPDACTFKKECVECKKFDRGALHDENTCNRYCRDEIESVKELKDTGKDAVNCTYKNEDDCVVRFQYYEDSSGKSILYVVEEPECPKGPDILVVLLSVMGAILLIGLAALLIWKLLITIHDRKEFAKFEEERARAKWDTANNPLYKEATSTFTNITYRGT
T2 sequence (P08514 32-887 limits assumed): as the sequence (P08514 32-887 limits assumed) above
T2 sequence (P08514 891-1039 limits assumed): as the sequence (P08514 891-1039 limits assumed) above
T2 sequence (P05106 27-788): as the sequence (P05106 27-788) above

In assay [1] (Test (a): pA2 value indicating potency of platelet aggregation inhibition), `CC(C(=O)c1ccc(OCC(=O)O)cc1)N1CCN(c2ccncc2)CC1` (racemic) [Example 17, RS 4-[2-[4-(4-Pyridyl)piperazin-1-yl]2-methylacetyl]phenoxyacetic acid sodium chloride adduct dihydrate] gave a Kb of 39.8 nM. The molecule further had an IC50 in assay [2] (Test (b): pIC50 (-log(IC50)), 50% inhibition of biotinylated fibrinogen binding to GPIIb/IIIa) of 20 nM.
In the case of `CC(C)(C)c1cc(C(=O)CN2CCN(c3ccncc3)CC2)cc(C(C)(C)C)c1OCC(=O)O` [Example 130, 4-[2-[4-(4-Pyridyl)piperazin-1-yl]acetyl]-2,6-di-tert-butylphenoxyacetic acid], the Kb in assay [1] (setting [3]) was greater than 100000 nM. Besides, the IC50 in assay [2] (setting [4]) was 3980 nM.
The corresponding values for `COC(=O)CCNC(=O)c1ccc(N2CCN(c3ccncc3)CC2)nc1` [Example 69, Methyl 3-[6-[4-(4-pyridyl)piperazin-1-yl]pyrid-3-ylcarboxamido]propionate] are 12600 nM and 3980 nM.
In the same order, the values of `COC(=O)COc1ccc(C(=O)CC2CCN(c3ccncc3)CC2)cc1` [Example 173, Methyl 4-[2-[1-(4-pyridyl)piperidin-4-yl]acetyl]phenoxyacetate] are 1260 nM and 200 nM.
As to `O=C(O)COc1ccc(C(=O)CN2CCN(c3ccncc3)CC2)c2ccccc12` [Example 124, 4-[2-[4-(4-Pyridyl)piperazin-1-yl]acetyl]naphthoxyacetic acid, dihydrochloride], the Kb in assay [1] (setting [3]) was 794 nM. For the same molecule, in assay [2] (setting [4]), the IC50 is 251 nM.
As to `O=C(O)COc1ccc(CC(=O)N2CCN(c3ccncc3)CC2)cc1` [Example 150, 4-[2-[4-(4-Pyridyl)piperazin-1-yl]carbonylmethyl]phenoxyacetic acid, dihydrochloride], the Kb in assay [1] (setting [3]) is 316 nM. Also, the IC50 in assay [2] (setting [4]) was 316 nM.
As for `CCOC(=O)COc1ccc(C(=O)CN2CCN(c3ccncc3)CC2)cc1` [Example 136, Ethyl-4-[2-[4-(4-pyridyl)piperazin-1-yl]acetyl]phenoxyacetate], the Kb in assay [1] (setting [3]) was 126 nM. In assay [2] (setting [4]), the IC50 is 2510 nM.
The corresponding values for `O=C(O)COC1CCN(C(=O)CN2CCN(c3ccncc3)CC2)CC1` [Example 32, 2-[1-[2-[4-(4-Pyridyl)piperazin-1-yl]acetyl]piperidin-4-yloxy]acetic acid] are 200 nM and 50.1 nM.
For the molecule `COC(=O)COc1ccc(C(=O)CN2CCN(c3cc(C)nc(C)c3)CC2)cc1` [Example 153, Methyl [2-[4-(2,6-dimethylpyrid-4-yl)piperazin-1-yl]acetyl]phenoxyacetate, hydrobromide], the Kb in assay [1] (setting [3]) was 15800 nM. Moreover, the IC50 in assay [2] (setting [4]) is 50100 nM.
The corresponding values for `CCCCS(=O)(=O)NCC1CCN(C(=O)CN2CCN(c3ccncc3)CC2)CC1` [Example 115, N-[1-[2-[4-(4-Pyridiyl)piperazin-1-yl]acetyl]piperidin-4-ylmethyl]-1-butanesulphonamide] are 3980 nM and greater than 100000 nM.
The corresponding values for `Cc1ccc(S(=O)(=O)Nc2ccc(C(=O)CN3CCN(c4ccncc4)CC3)cc2)cc1` [Example 19, N-[4-[2-[4-(4-Pyridyl)piperazin-1-yl]acetyl]phenyl-4-methylphenyl]-sulphonamide] are 2510 nM and 2000 nM.
In the same order, the values of `O=C(O)COc1ccc(C(=O)CN2CCN(c3ccnc4ccccc34)CC2)cc1` [Example 44, 4-[2-[4-(4-Quinolinyl)piperazin-1-yl]acetyl]phenoxyacetic acid trifluoroacetate salt] are 10000 nM and 100 nM.
As for `CC(C)(C)COC(=O)COc1ccc(C(=O)CN2CCN(c3ccncc3)CC2)cc1` [Example 139, Neopentyl 4-[2-[4-(4-pyridyl)piperazin-1-yl]acetyl]phenoxyacetate], the Kb in assay [1] (setting [3]) was 251 nM. For the same molecule, the IC50 in assay [2] (setting [4]) was 3980 nM.
In the same order, the values of `CCCCS(=O)(=O)N[C@@H](Cc1ccc(OCCC2CCN(c3ccncc3)CC2)cc1)C(=O)OC` [Example 35, Methyl 2-S-(n-butylsulphonylamino)-3-[4-[2-[1-(4-pyridyl)piperidin-4-yl]ethoxy]phenyl]propionate] are 398 nM and 63.1 nM.
